Assay results published in the supplement of paper PMC11061612.

Experiments:
[1] = compound: CC1=CN2[C@@H](C1)C=NC3=CC(=C(C=C3C2=O)OC)OCCCCCOC4=C(C=C5C(=C4)N=C[C@@H]6CC(=CN6C5=O)C)OC [SG3199]; settings: max 0.001 µM
In short: (§1)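 After 24 hours at 37°C and 5% CO2 in 1536-well plates holding 7.5 μl of DMEM/F12 or RPMI with 10% FBS, cancer cell lines were dosed for 72 hours, with final DMSO typically 0.2%. Viability came from CellTiter-Glo 2.0 luminescence, scaled between the means of blank wells and DMSO wells. A non-linear mixed effects model fitted a two-parameter logistic curve to each dose response to give the single-agent IC50.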

[2] = compound: CC1(C)CCC(CN2CCN(c3ccc(C(=O)NS(=O)(=O)c4ccc(NCC5CCOCC5)c([N+](=O)[O-])c4)c(Oc4cnc5[nH]ccc5c4)c3)CC2)=C(c2ccc(Cl)cc2)C1 [Venetoclax]; settings: max 1 µM
In short: as §1

[3] = compound: Cc1nc(-c2cn3c(n2)-c2ccc(-c4cnn(C(C)(C)C(N)=O)c4)cc2OCC3)n(C(C)C)n1 [Taselisib]; settings: max 10 µM
In short: as §1

[4] = compound: CN(C)CCCOc1ccc(-c2ccc3ncc4c(c3c2)n(C2CCOCC2)c(=O)n4C)cn1 [AZD0156]; settings: max 3 µM
In short: as §1

[5] = compound: C[C@@H](Nc1cc(F)cc(F)c1)c1cc(C(=O)N(C)C)cc2c(=O)cc(N3CCOCC3)oc12 [AZD8186]; settings: max 3 µM
In short: as §1

[6] = compound: Cc1cc2ncnn2cc1Nc1ncc2c(n1)n(C1CCOCC1)c(=O)n2C [AZD7648]; settings: max 10 µM
In short: as §1

[7] = compound: C1CN(CCC1(C(=O)N[C@@H](CCO)C2=CC=C(C=C2)Cl)N)C3=NC=NC4=C3C=CN4 [Capivasertib]; settings: max 10 µM
In short: as §1

[8] = compound: Cc1c2c(nn1C)CSCc1cc(n(C)n1)CSc1cc(c3ccccc3c1)OCCCc1c(C(=O)O)n(C)c3c-2c(Cl)ccc13 [AZD5991]; settings: max 1 µM
In short: as §1

[9] = compound: C[C@@H]1COCCN1C2=NC(=NC(=C2)C3(CC3)[S@](=N)(=O)C)C4=C5C=CNC5=NC=C4 [AZD6738]; settings: max 10 µM
In short: as §1

[10] = compound: COc1cc(Nc2ncc3c(n2)-c2ccc(Cl)cc2C(c2c(F)cccc2OC)=NC3)ccc1C(=O)O [Alisertib]; settings: max 10 µM
In short: as §1

[11] = compound: COc1cc2ncnc(Nc3ccc(F)c(Cl)c3)c2cc1OCCCN1CCOCC1 [Gefitinib]; settings: max 10 µM
In short: as §1

[12] = compound: COc1nnc2ccc(N3CCC(c4ccc(OCCN5CCN(C)C(=O)[C@H]5C)cc4)CC3)nn12 [AZD5153]; settings: max 1 µM
In short: as §1

[13] = compound: C[C@@H](Oc1cc(-c2cnn(C3CCNCC3)c2)cnc1N)c1c(Cl)ccc(F)c1Cl [Crizotinib]; settings: max 10 µM
In short: as §1

[14] = compound: CCc1c2c(nc3ccc(O)cc13)-c1cc3c(c(=O)n1C2)COC(=O)[C@]3(O)CC [SN-38]; settings: max 0.3 µM
In short: as §1

[15] = compound: CC1=C(C(=CC=C1)Cl)NC(=O)C2=CN=C(S2)NC3=CC(=NC(=N3)C)N4CCN(CC4)CCO [Dasatinib]; settings: max 2 µM
In short: as §1

[16] = compound: C[C@@H](c1ccc2nccn2c1)n1nnc2ncc(-c3cnn(C)c3)nc21 [Savolitinib]; settings: max 1 µM
In short: as §1

[17] = compound: CC(=O)c1c(C)c2cnc(Nc3ccc(N4CCNCC4)cn3)nc2n(C2CCCC2)c1=O [Palbociclib]; settings: max 10 µM
In short: as §1

[18] = compound: CCN(CCO)CCCOc1ccc2c(Nc3cc(CC(=O)Nc4cccc(F)c4)[nH]n3)ncnc2c1 [AZD2811]; settings: max 1 µM
In short: as §1

[19] = compound: C=CCn1c(=O)c2cnc(Nc3ccc(N4CCN(C)CC4)cc3)nc2n1-c1cccc(C(C)(C)O)n1 [AZD1775]; settings: max 3 µM
In short: as §1

[20] = compound: CS(=O)(=O)CCNCc1ccc(-c2ccc3ncnc(Nc4ccc(OCc5cccc(F)c5)c(Cl)c4)c3c2)o1 [Lapatinib]; settings: max 10 µM
In short: as §1

[21] = compound: CC(C)n1c(=O)n(C)c2cnc3cc(F)c(-c4ccc(OCCCN5CCCCC5)nc4)cc3c21 [AZD1390]; settings: max 0.3 µM
In short: as §1

[22] = compound: O=C(c1cc(Cc2n[nH]c(=O)c3ccccc23)ccc1F)N1CCN(C(=O)C2CC2)CC1 [Olaparib]; settings: max 10 µM
In short: as §1

[23] = compound: COc1cccc(OCCCN)c1-c1cc(Nc2cnc(C#N)cn2)n[nH]1 [Prexasertib]; settings: max 1 µM
In short: as §1

[24] = compound: CN(CC[C@H](CSC1=CC=CC=C1)NC2=C(C=C(C=C2)S(=O)(=O)NC(=O)C3=CC=C(C=C3)N4CCC(CC4)[C@H](C5=CC=CC=C5C6=CC=C(C=C6)Cl)O)S(=O)(=O)C(F)(F)F)CCO [AZD4320]; settings: max 1 µM
In short: as §1

[25] = compound: Cn1cnc2c(F)c(Nc3ccc(Br)cc3Cl)c(C(=O)NOCCO)cc21 [Selumetinib]; settings: max 10 µM
In short: as §1

[26] = compound: COc1cccc2c1C(=O)c1c(O)c3c(c(O)c1C2=O)C[C@@](O)(C(=O)CO)C[C@@H]3O[C@H]1C[C@H](N)[C@H](O)[C@H](C)O1 [Doxorubicin]; settings: max 1 µM
In short: as §1

[27] = compound: CC(=O)Nc1cccc(-n2c(=O)n(C3CC3)c(=O)c3c(Nc4ccc(I)cc4F)n(C)c(=O)c(C)c32)c1 [Trametinib]; settings: max 1 µM
In short: as §1

HT55 (Colorectal Carcinoma)
IC50, cell viability 72 h [1]: > 0.001 µM | IC50, cell viability 72 h [2]: > 1 µM | IC50, cell viability 72 h [3]: 0.753 µM | IC50, cell viability 72 h [4]: > 3 µM | IC50, cell viability 72 h [5]: > 3 µM | IC50, cell viability 72 h [6]: > 10 µM | IC50, cell viability 72 h [7]: > 10 µM | IC50, cell viability 72 h [8]: > 1 µM | IC50, cell viability 72 h [9]: > 10 µM | IC50, cell viability 72 h [10]: > 10 µM | IC50, cell viability 72 h [11]: > 10 µM | IC50, cell viability 72 h [12]: 0.646 µM | IC50, cell viability 72 h [13]: > 10 µM | IC50, cell viability 72 h [14]: > 0.3 µM | IC50, cell viability 72 h [15]: > 2 µM | IC50, cell viability 72 h [16]: > 1 µM | IC50, cell viability 72 h [17]: 9.65 µM | IC50, cell viability 72 h [18]: > 1 µM | IC50, cell viability 72 h [19]: 0.659 µM | IC50, cell viability 72 h [20]: 1.75 µM | IC50, cell viability 72 h [21]: > 0.3 µM | IC50, cell viability 72 h [22]: > 10 µM | IC50, cell viability 72 h [23]: 0.268 µM | IC50, cell viability 72 h [24]: > 1 µM | IC50, cell viability 72 h [25]: 1.15 µM | IC50, cell viability 72 h [26]: > 1 µM | IC50, cell viability 72 h [27]: 0.0301 µM

RH-41 (Rhabdomyosarcoma)
IC50, cell viability 72 h [1]: > 0.001 µM | IC50, cell viability 72 h [2]: > 1 µM | IC50, cell viability 72 h [3]: 0.0931 µM | IC50, cell viability 72 h [4]: > 3 µM | IC50, cell viability 72 h [5]: > 3 µM | IC50, cell viability 72 h [6]: > 10 µM | IC50, cell viability 72 h [7]: 0.314 µM | IC50, cell viability 72 h [8]: 0.0885 µM | IC50, cell viability 72 h [9]: 4.12 µM | IC50, cell viability 72 h [10]: 3.43 µM | IC50, cell viability 72 h [11]: > 10 µM | IC50, cell viability 72 h [12]: 0.0968 µM | IC50, cell viability 72 h [13]: 1.98 µM | IC50, cell viability 72 h [14]: 0.057 µM | IC50, cell viability 72 h [15]: > 2 µM | IC50, cell viability 72 h [16]: > 1 µM | IC50, cell viability 72 h [17]: > 10 µM | IC50, cell viability 72 h [18]: > 1 µM | IC50, cell viability 72 h [19]: 0.729 µM | IC50, cell viability 72 h [20]: > 10 µM | IC50, cell viability 72 h [21]: > 0.3 µM | IC50, cell viability 72 h [22]: > 10 µM | IC50, cell viability 72 h [23]: 0.0231 µM | IC50, cell viability 72 h [24]: 0.087 µM | IC50, cell viability 72 h [25]: > 10 µM | IC50, cell viability 72 h [26]: 0.476 µM | IC50, cell viability 72 h [27]: > 1 µM
